The record followed here is ChEMBL document CHEMBL5518224, “Rational Design of PARP1/c-Met Dual Inhibitors for Overcoming PARP1 Inhibitor Resistance Induced by c-Met Overexpression” (J Med Chem, 2024).

The IC50 is the concentration that inhibits the measured activity by half.

Data set [1] addresses Poly [ADP-ribose] polymerase 1 (Homo sapiens, UniProt P09874). Kind of data set: Inhibition of PARP1 (unknown origin) using histone as substrate incubated for 45 mins by absorbance based analysis.
The target in data set [2] is Hepatocyte growth factor receptor (Homo sapiens, UniProt P08581). In words: Inhibition of c-Met (unknown origin) by HTRF method.
Data set [3] has as its system MDA-MB-231. Kind of data set: Antiproliferative activity against human MDA-MB-231 cells harboring wild type BRCA and c-Met amplification assessed as inhibition of cell growth incubated for 7 days by MTT assay. The format is functional, cell-based. The settings on record: MDA-MB-231, 168 h.
For data set [4], the system named is MDA-MB-468. In words: Antiproliferative activity against human MDA-MB-468 cells harboring wild type BRCA1/2, HR-proficient and non-c-Met amplification assessed as inhibition of cell growth incubated for 7 days by MTT assay. The format is functional, cell-based. The settings on record: MDA-MB-468, 168 h. In general terms: Tetrazolium assays rely on reduction of a dye to a coloured formazan, in cell work by metabolically active cells.

Data set [5] can be described thus: Antiproliferative activity against human Olaparib-resistant HCC1937 cells harboring BRCA1 mutant and PARP1 overexpression assessed as inhibition of cell growth incubated for 7 days by MTT assay. Format: functional, cell-based. The settings on record: Olaparib-resistant HCC1937, 168 h.
For data set [6], the system named is Olaparib-resistant HCT116. In words: Antiproliferative activity against human Olaparib-resistant HCT116 cells harboring BRCA2 mutant assessed as inhibition of cell growth incubated for 7 days by MTT assay. The format is functional, cell-based. The note with it: Olaparib-resistant HCT116, 168 h.
Data set [7] concerns MDA-MB-231. In words: Potency index, ratio of olaparib IC50 to test compound IC50 for antiproliferative activity against human MDA-MB-231 cells harboring wild type BRCA and c-Met amplification assessed as inhibition of cell growth incubated for 7 days by MTT assay. Format: functional. The settings on record: time 7 day.
A short description of data set [8]: Cytotoxicity against NRK cells assessed as inhibition of cell growth incubated for 72 hrs by MTT assay. The format is toxicity, cell-based. The note with it: rat.
Data set [9] relates to MDA-MB-468. Kind of data set: Potency index, ratio of olaparib IC50 to test compound IC50 for antiproliferative activity against human MDA-MB-468 cells harboring wild type BRCA1/2, HR-proficient and non-c-Met amplification assessed as inhibition of cell growth incubated for 7 days by MTT assay. Format: functional. The settings on record: time 7 day.
Data set [10] concerns MDA-MB-468. Kind of data set: Potency index, ratio of crizotinib IC50 to test compound IC50 for antiproliferative activity against human MDA-MB-468 cells harboring wild type BRCA1/2, HR-proficient and non-c-Met amplification assessed as inhibition of cell growth incubated for 7 days by MTT assay. The format is functional. The note with it: time 7 day.
Data set [11] can be described thus: Potency index, ratio of olaparib IC50 to test compound IC50 for antiproliferative activity against human Olaparib-resistant HCC1937 cells harboring BRCA1 mutant and PARP1 overexpression assessed as inhibition of cell growth incubated for 7 days by MTT assay. The format is functional. The settings on record: time 7 day.
Data set [12] relates to Olaparib-resistant HCT116. Kind of data set: Potency index, ratio of olaparib IC50 to test compound IC50 for antiproliferative activity against human Olaparib-resistant HCT116 cells harboring BRCA2 mutant assessed as inhibition of cell growth incubated for 7 days by MTT assay. Format: functional. The note with it: time 7 day.
Data set [13] relates to MDA-MB-231. In words: Induction of apoptosis in human MDA-MB-231 cells assessed as live cells at 0.5 uM incubated for 4 days by Annexin V-FITC/PI staining based flow cytometry analysis (reference value: 94.6%). The settings on record: time 4 day. Format: functional. For orientation: A flow cytometer gives signals particle by particle.
Data set [14] deals with MDA-MB-231. Kind of data set: Induction of apoptosis in human MDA-MB-231 cells assessed as early apoptotic cells at 0.5 uM incubated for 4 days by Annexin V-FITC/PI staining based flow cytometry analysis (reference value: 3.88%). Format: functional. The settings on record: time 4 day.
In data set [15] the test system is MDA-MB-231. In words: Induction of apoptosis in human MDA-MB-231 cells assessed as late apoptotic cells at 0.5 uM incubated for 4 days by Annexin V-FITC/PI staining based flow cytometry analysis (reference value: 0.81%). The format is functional. The note with it: time 4 day.
In data set [16] the test system is MDA-MB-231. In words: Induction of apoptosis in human MDA-MB-231 cells assessed as dead cells at 0.5 uM incubated for 4 days by Annexin V-FITC/PI staining based flow cytometry analysis (reference value: 0.72%). Format: functional. The settings on record: time 4 day.
Data set [17] deals with MDA-MB-231. In words: Induction of apoptosis in human MDA-MB-231 cells assessed as live cells at 1 uM incubated for 4 days by Annexin V-FITC/PI staining based flow cytometry analysis (reference value: 94.6%). The format is functional. The note with it: time 4 day.
Data set [18] concerns MDA-MB-231. Kind of data set: Induction of apoptosis in human MDA-MB-231 cells assessed as early apoptotic cells at 1 uM incubated for 4 days by Annexin V-FITC/PI staining based flow cytometry analysis (reference value: 3.88%). Format: functional. The settings on record: time 4 day.
The subject of data set [19] is MDA-MB-231. Kind of data set: Induction of apoptosis in human MDA-MB-231 cells assessed as late apoptotic cells at 1 uM incubated for 4 days by Annexin V-FITC/PI staining based flow cytometry analysis (reference value: 0.81%). Format: functional. The settings on record: time 4 day.
The test system of data set [20] is MDA-MB-231. Kind of data set: Induction of apoptosis in human MDA-MB-231 cells assessed as dead cells at 1 uM incubated for 4 days by Annexin V-FITC/PI staining based flow cytometry analysis (reference value: 0.72%). The format is functional. The note with it: time 4 day.

Sequence of Hepatocyte growth factor receptor (P08581 whole entry): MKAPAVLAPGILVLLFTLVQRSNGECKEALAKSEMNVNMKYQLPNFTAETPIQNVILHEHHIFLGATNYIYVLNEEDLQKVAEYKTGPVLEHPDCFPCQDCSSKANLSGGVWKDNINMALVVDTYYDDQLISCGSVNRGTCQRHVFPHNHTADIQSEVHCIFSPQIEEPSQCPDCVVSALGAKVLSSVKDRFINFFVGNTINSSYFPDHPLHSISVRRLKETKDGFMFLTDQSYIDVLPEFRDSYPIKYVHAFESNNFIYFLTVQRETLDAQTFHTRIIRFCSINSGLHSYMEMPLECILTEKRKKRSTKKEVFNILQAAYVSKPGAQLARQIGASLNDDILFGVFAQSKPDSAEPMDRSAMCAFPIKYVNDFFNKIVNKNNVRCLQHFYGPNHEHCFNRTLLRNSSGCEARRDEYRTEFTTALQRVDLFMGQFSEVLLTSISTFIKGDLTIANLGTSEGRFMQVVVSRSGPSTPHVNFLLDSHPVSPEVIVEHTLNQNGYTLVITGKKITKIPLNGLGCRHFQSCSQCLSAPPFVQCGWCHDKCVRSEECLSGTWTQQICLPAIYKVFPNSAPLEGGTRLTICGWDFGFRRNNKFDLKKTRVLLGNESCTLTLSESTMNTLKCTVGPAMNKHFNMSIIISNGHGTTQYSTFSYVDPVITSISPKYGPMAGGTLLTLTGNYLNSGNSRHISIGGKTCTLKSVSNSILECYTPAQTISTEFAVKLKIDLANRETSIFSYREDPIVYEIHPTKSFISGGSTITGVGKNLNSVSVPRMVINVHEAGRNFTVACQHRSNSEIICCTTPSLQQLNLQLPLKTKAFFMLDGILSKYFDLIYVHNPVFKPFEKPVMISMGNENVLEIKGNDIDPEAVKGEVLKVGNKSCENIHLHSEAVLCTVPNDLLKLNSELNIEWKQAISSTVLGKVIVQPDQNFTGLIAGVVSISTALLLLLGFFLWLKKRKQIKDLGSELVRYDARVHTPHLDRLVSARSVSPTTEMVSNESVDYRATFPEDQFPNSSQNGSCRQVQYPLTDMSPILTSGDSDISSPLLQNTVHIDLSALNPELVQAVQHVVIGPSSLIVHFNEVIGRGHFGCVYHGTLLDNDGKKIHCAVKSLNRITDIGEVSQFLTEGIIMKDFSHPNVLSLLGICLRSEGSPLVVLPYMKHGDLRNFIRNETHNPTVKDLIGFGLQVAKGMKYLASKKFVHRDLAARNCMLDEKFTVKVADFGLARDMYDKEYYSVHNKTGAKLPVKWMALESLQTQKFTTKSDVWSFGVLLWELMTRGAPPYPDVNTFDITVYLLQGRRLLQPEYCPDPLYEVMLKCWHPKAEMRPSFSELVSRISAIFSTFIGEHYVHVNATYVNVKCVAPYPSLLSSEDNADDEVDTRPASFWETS
Sequence of Poly [ADP-ribose] polymerase 1 (P09874 whole entry): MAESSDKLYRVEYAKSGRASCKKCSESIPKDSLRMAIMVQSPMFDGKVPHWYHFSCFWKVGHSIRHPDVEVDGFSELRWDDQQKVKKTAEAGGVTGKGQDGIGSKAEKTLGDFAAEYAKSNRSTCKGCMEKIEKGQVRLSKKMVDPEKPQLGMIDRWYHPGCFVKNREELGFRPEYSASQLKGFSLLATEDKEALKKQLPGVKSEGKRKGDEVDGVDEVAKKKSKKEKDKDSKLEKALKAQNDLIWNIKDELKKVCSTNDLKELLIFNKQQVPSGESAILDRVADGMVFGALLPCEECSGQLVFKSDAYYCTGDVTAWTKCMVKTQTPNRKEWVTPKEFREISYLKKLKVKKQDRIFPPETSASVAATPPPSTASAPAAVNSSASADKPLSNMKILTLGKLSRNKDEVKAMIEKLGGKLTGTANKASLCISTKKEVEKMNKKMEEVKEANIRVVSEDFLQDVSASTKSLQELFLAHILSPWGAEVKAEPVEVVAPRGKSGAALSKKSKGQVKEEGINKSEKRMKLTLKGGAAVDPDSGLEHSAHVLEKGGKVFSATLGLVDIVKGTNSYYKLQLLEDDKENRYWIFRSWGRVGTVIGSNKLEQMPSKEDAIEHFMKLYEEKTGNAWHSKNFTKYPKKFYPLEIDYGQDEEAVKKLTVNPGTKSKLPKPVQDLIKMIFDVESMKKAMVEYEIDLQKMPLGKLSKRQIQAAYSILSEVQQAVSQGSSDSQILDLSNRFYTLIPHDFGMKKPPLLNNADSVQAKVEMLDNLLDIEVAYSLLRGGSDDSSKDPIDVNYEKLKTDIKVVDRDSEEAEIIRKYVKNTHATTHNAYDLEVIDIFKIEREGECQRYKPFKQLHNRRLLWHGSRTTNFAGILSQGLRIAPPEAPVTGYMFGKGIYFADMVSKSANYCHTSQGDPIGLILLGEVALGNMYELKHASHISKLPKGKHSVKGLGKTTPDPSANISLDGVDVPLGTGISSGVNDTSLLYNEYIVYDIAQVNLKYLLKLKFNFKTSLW

In the case of `O=C(c1cc(Cc2n[nH]c(=O)c3ccccc23)ccc1F)N1CCN(c2ccc3c(OCCn4nc(-c5cccnc5)ccc4=O)ccnc3c2)CC1`, the IC50 in [1] stood at 3.3 nM; in data set [2], 32.2 nM; with MDA-MB-231 [3], 45 nM; with MDA-MB-468 [4] it was 170 nM; in [5], 4570 nM; in data set [6], 5330 nM. Also, the “Ratio IC50” value in the data set with MDA-MB-231 [7] is 680; in the data set on MDA-MB-468 [9], 54; with MDA-MB-468 [10], 26; in data set [11] it was 4; in data set [12], 10. Further, the IC50 at 72 h in [8] is 8730 nM. Also, the Activity is given as 78.5% in the data set on MDA-MB-231 [13]; 8.46% in the data set with MDA-MB-231 [14]; 8.09% with MDA-MB-231 [15]; 5% in the data set with MDA-MB-231 [16]; 67.2% in the data set with MDA-MB-231 [17]; 15.8% in the data set on MDA-MB-231 [18]. Also, the values for the Activity in the data set on MDA-MB-231 [19] and in the data set on MDA-MB-231 [20] were 10.6% and 6.37%, respectively.
